Measured values: patent US8394848B2, “Compounds that modulate intracellular calcium” (Calcimedica, Inc., priority 2008, dated 2013)

target: T1, recombinant human STIM1 and Orai1 (HEK-293 stable cells; JR251) (Homo sapiens, UniProt Q96D31); experiment: Fluorescence-based assay of store-operated calcium entry in Orai1/STIM1 stable cells; type: cell-based; settings: 50% inhibition of Peak-Basal signal
T1 construct: c-myc (C); expressed in transfected cells
Procedure: A. Fluorescence-Based Assay of Store-Operated Calcium Entry in Orai1/STIM1 Stable Cells.
Cells stably expressing recombinant human STIM1 and Orai1 were generated by transfecting a human Orai1 expression plasmid (pcDNA3.1-Orai1-cmyc) into HEK-293 cells stably overexpressing human STIM1 (Roos et al. 2005 JCB 169(3): 435-445). Colonies of cells stably expressing both STIM1 and Orai1 proteins were selected and then subcloned by limiting dilution. Cells were cultured at 37° C./6% CO2 in complete medium with 10% FBS and appropriate selection markers.
The day prior to performing the assay Orai1/STIM1 stable cells were plated in 50 μL of complete medium at 90-95% confluence in a 384 well plate. Cells were grown at 37° C./6% CO2 overnight. On the day of the assay, 1.5 μM fluo-4-AM (Invitrogen) in complete medium was added to the cells, which were then incubated for 1 hour at RT. Cells were washed once in Ca^2+-free HBSS (Hank's buffered saline solution) and 35 μl of Ca^2+-free HBSS was added to each well. Test compounds were added to wells in a 10 μL Ca^2+-free HBSS solution, prepared at 4.5× the desired final concentration, and incubated for 30 minutes at RT. The initial baseline fluorescence signal was then measured with a FLIPR^384 (Molecular Devices) plate reader. Calcium entry was initiated by adding 5 μl of 10×CaCl2 (10 mM) in HBSS, and changes in cellular fluorescence were measured with the FLIPR^384 plate reader. In each well, the magnitude of the fluorescence signal as a result of calcium entry into the cell was determined by calculating the difference between the peak fluorescence signal measured after calcium addition and the initial baseline fluorescence signal (designated Peak-Basal). IC50 values were typically calculated as the concentration that inhibited 50% of the Peak-Basal signal (Table A).

T1 sequence (Q96D31 whole entry): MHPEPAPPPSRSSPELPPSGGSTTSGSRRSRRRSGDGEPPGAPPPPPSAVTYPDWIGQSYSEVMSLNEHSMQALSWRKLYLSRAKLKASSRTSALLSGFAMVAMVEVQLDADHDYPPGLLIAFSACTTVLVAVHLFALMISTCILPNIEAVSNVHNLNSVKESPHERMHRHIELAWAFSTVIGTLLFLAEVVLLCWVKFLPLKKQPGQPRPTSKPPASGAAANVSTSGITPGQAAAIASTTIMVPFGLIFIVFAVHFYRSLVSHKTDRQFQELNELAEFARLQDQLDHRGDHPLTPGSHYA

SMILES	IC50
O=C(Nc1scc(-c2ccc(Br)cc2)c1C(=O)O)c1ccc(C(F)(F)F)nc1 [AA]	1 to 10 µM
COc1c(F)c(F)cc(C(=O)Nc2scc(-c3ccc(Br)cc3)c2C(=O)O)c1F [L]	≤ 0.5 µM

test system: JR251 or RBL cells; experiment: Store-operated calcium entry, either JR251 or RBL cells, or both; type: cell-based; settings: not given
Outline: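 Orai1/STIM1 stable cells: fluo-4-AM loaded, compound 30 min at RT in Ca2+-free HBSS, then CaCl2 added; IC50 from Peak-Basal FLIPR fluorescence. RBL-2H3 cells: compound 5 min, then thapsigargin (5.5× stock, 5.5 uM) 25 min, then calcium added; IC50 from Upslope (signal 7 s after calcium minus baseline).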

SMILES	IC50
O=C(Nc1scc(-c2ccc(Cl)cc2F)c1C(=O)O)c1nc2ccccc2o1 [2-(benzo[d]oxazole-2-carboxamido)-4-(4-chloro-2-fluorophenyl)thiophene-3-carboxylic acid]	< 10 µM
O=C(Nc1scc(-c2ccc(Cl)cc2)c1C(=O)O)c1cc2ccccn2n1 [4-(4-chlorophenyl)-2-(pyrazolo[1,5-a]pyridine-2-carboxamido)thiophene-3-carboxylic acid]	< 10 µM
CC(Cc1ccccc1)C(=O)Nc1scc(-c2ccc(Cl)cc2)c1C(=O)O (stereo not drawn) [4-(4-chlorophenyl)-2-(2-methyl-3-phenylpropanamido)thiophene-3-carboxylic acid]	< 10 µM
COc1cc(-c2csc(NC(=O)c3ccc4snnc4c3)c2C(=O)O)ccc1Cl [2-(benzo[d][1,2,3]thiadiazole-5-carboxamido)-4-(4-chloro-3-methoxyphenyl)thiophene-3-carboxylic acid]	< 10 µM
Cc1ccc(-c2csc(NC(=O)c3nc4ccccc4s3)c2C(=O)O)c(F)c1F [2-(benzo[d]thiazole-2-carboxamido)-4-(2,3-difluoro-4-methylphenyl)thiophene-3-carboxylic acid]	< 10 µM
Cc1ccc(-c2csc(NC(=O)c3nc4c(F)cccc4o3)c2C(=O)O)c(F)c1F [4-(2,3-difluoro-4-methylphenyl)-2-(4-fluorobenzo[d]oxazole-2-carboxamido)thiophene-3-carboxylic acid]	< 10 µM
O=C(C#Cc1ccccc1)Nc1scc(-c2ccc(Cl)cc2)c1C(=O)O [4-(4-chlorophenyl)-2-(3-phenylpropiolamido)thiophene-3-carboxylic acid]	< 10 µM
O=C(Nc1scc(-c2ccc(Cl)cc2)c1C(=O)O)c1nc2ccccc2s1 [2-(benzo[d]thiazole-2-carboxamido)-4-(4-chlorophenyl)thiophene-3-carboxylic acid]	< 10 µM
Cc1ccc(-c2csc(NC(=O)c3nc4c(F)cccc4s3)c2C(=O)O)c(F)c1F [4-(2,3-difluoro-4-methylphenyl)-2-(4-fluorobenzo[d]thiazole-2-carboxamido)thiophene-3-carboxylic acid]	< 10 µM
O=C(CSc1ccccc1)Nc1scc(-c2ccccc2Br)c1C(=O)O [4-(2-bromophenyl)-2-(2-(phenylthio)acetamido)thiophene-3-carboxylic acid]	< 10 µM
O=C1CC(C(=O)Nc2scc(-c3ccc(Cl)cc3)c2C(=O)O)Cc2ccccc21 (stereo not drawn) [4-(4-chlorophenyl)-2-(4-oxo-1,2,3,4-tetrahydronaphthalene-2-carboxamido)thiophene-3-carboxylic acid]	< 10 µM
O=C(CCc1ccccc1Cl)Nc1scc(-c2ccc(Br)cc2)c1C(=O)O [4-(4-bromophenyl)-2-(3-(2-chlorophenyl)propanamido)thiophene-3-carboxylic acid]	< 10 µM
O=C(CCc1ccc(F)cc1)Nc1scc(-c2ccc(Br)cc2)c1C(=O)O [4-(4-bromophenyl)-2-(3-(4-fluorophenyl)propanamido)thiophene-3-carboxylic acid]	< 10 µM
O=C(O)c1c(-c2ccc(Br)cc2)csc1NC(=O)C(F)Cc1cc(F)c(F)cc1Cl (stereo not drawn) [4-(4-bromophenyl)-2-(3-(2-chloro-4,5-difluorophenyl)-2-fluoropropanamido)thiophene-3-carboxylic acid]	< 10 µM
CC(C)(C)C(Cc1ccccc1)C(=O)Nc1scc(-c2ccc(Cl)cc2)c1C(=O)O (stereo not drawn) [2-(2-benzyl-3,3-dimethylbutanamido)-4-(4-chlorophenyl)thiophene-3-carboxylic acid]	< 10 µM
O=C(O)c1c(-c2ccccc2Br)csc1NC(=O)C1CC1 [4-(2-bromophenyl)-2-(cyclopropanecarboxamido)thiophene-3-carboxylic acid]	< 10 µM
O=C(Nc1scc(-c2ccc(Cl)cc2)c1C(=O)O)c1nc2c(F)cccc2o1 [4-(4-chlorophenyl)-2-(4-fluorobenzo[d]oxazole-2-carboxamido)thiophene-3-carboxylic acid]	< 10 µM
O=C(Nc1scc(-c2ccc(Cl)cc2)c1C(=O)O)c1ncc2ccccc2n1 [4-(4-chlorophenyl)-2-(quinazoline-2-carboxamido)thiophene-3-carboxylic acid]	< 10 µM
O=C(Nc1scc(-c2ccc(Cl)cc2)c1C(=O)O)c1cn2ccsc2n1 [4-(4-chlorophenyl)-2-(imidazo[2,1-b]thiazole-6-carboxamido)thiophene-3-carboxylic acid]	< 10 µM

SMILES	IC50
O=C(Nc1scc(-c2ccccc2Br)c1C(=O)O)c1cccs1 [4-(2-bromophenyl)-2-(thiophene-2-carboxamido)thiophene-3-carboxylic acid]	< 10 µM
Cc1ccc(-c2csc(NC(=O)c3ccc(-c4ccccc4)s3)c2C(=O)O)cc1 [2-(5-phenylthiophene-2-carboxamido)-4-p-tolylthiophene-3-carboxylic acid]	< 10 µM
Cc1ccc(-c2csc(NC(=O)c3nc4ccccc4o3)c2C(=O)O)c(F)c1 [2-(benzo[d]oxazole-2-carboxamido)-4-(2-fluoro-4-methylphenyl)thiophene-3-carboxylic acid]	< 10 µM
O=C(Nc1scc(-c2ccc(Br)cc2)c1C(=O)O)c1cn2ccccc2n1 [4-(4-bromophenyl)-2-(imidazo[1,2-a]pyridine-2-carboxamido)thiophene-3-carboxylic acid]	< 10 µM
O=C(Nc1scc(-c2ccc(Oc3ccccc3)cc2)c1C(=O)O)c1nc2ccccc2o1 [2-(benzo[d]oxazole-2-carboxamido)-4-(4-phenoxyphenyl)thiophene-3-carboxylic acid]	< 10 µM
O=C(Nc1scc(-c2ccc(Cl)cc2)c1C(=O)O)c1nc2cccc(F)c2o1 [4-(4-chlorophenyl)-2-(7-fluorobenzo[d]oxazole-2-carboxamido)thiophene-3-carboxylic acid]	< 10 µM
O=C(Nc1scc(-c2cccc(Cl)c2)c1C(=O)O)c1ccsc1 [4-(3-chlorophenyl)-2-(thiophene-3-carboxamido)thiophene-3-carboxylic acid]	< 10 µM
O=C(Nc1scc(-c2ccc(Cl)cc2)c1C(=O)O)c1ccco1 [4-(4-chlorophenyl)-2-(furan-2-carboxamido)thiophene-3-carboxylic acid]	< 10 µM
O=C(O)c1c(-c2ccc(Cl)cc2)csc1NC(=O)C1Cc2cc(Cl)ccc2O1 (stereo not drawn) [2-(5-chloro-2,3-dihydrobenzofuran-2-carboxamido)-4-(4-chlorophenyl)thiophene-3-carboxylic acid]	< 10 µM
O=C(O)c1c(-c2ccc(Br)cc2)csc1NC(=O)C1Cc2ccccc2O1 (stereo not drawn) [4-(4-bromophenyl)-2-(2,3-dihydrobenzofuran-2-carboxamido)thiophene-3-carboxylic acid]	< 10 µM
N#Cc1ccc(-c2csc(NC(=O)c3ccc4snnc4c3)c2C(=O)O)cc1 [2-(benzo[d][1,2,3]thiadiazole-5-carboxamido)-4-(4-cyanophenyl)thiophene-3-carboxylic acid]	< 10 µM
O=C(CCc1ccc(F)c(F)c1)Nc1scc(-c2ccc(Cl)cc2)c1C(=O)O [4-(4-chlorophenyl)-2-(3-(3,4-difluorophenyl)propanamido)thiophene-3-carboxylic acid]	< 10 µM
O=C(Nc1scc(-c2cc3cccc(O)c3o2)c1C(=O)O)c1ccc2nnsc2c1 [2-(benzo[d][1,2,3]thiadiazole-6-carboxamido)-4-(7-hydroxybenzofuran-2-yl)thiophene-3-carboxylic acid]	< 10 µM
Cc1ccc(-c2csc(NC(=O)c3nc4ccccc4o3)c2C(=O)O)c(F)c1F [2-(benzo[d]oxazole-2-carboxamido)-4-(2,3-difluoro-4-methylphenyl)thiophene-3-carboxylic acid]	< 10 µM
O=C(NCc1ccccc1)Nc1scc(-c2ccc(Br)cc2)c1C(=O)O [2-(3-benzylureido)-4-(4-bromophenyl)thiophene-3-carboxylic acid]	< 10 µM
O=C(Nc1scc(-c2ccc(Cl)c(F)c2F)c1C(=O)O)c1nc2ccccc2o1 [2-(benzo[d]oxazole-2-carboxamido)-4-(4-chloro-2,3-difluorophenyl)thiophene-3-carboxylic acid]	< 10 µM
CC(C(=O)Nc1scc(-c2ccc(Br)cc2)c1C(=O)O)C(C)c1ccccc1 (stereo not drawn) [4-(4-bromophenyl)-2-(2-methyl-3-phenylbutanamido)thiophene-3-carboxylic acid]	< 10 µM
O=C(O)c1c(-c2ccc(Cl)cc2)csc1NC(=O)C(F)Cc1cc(F)c(F)cc1Cl (stereo not drawn) [2-(3-(2-chloro-4,5-difluorophenyl)-2-fluoropropanamido)-4-(4-chlorophenyl)thiophene-3-carboxylic acid]	< 10 µM
